Source: PubChem BioAssay AID651964 (The Scripps Research Institute Molecular Screening Center, 2012)

Columns and labels:
Test in all cases: PubChem AID 651964; call rule not given here
BiP = conditions: mouse embryonic fibroblasts, qRT-PCR mRNA fold induction, at 10 µM (top of the series)
[1] = biological target: DNA damage-inducible transcript 3 protein (Mus musculus) (UniProt P35639); conditions: mouse embryonic fibroblasts, qRT-PCR mRNA fold induction; CHOP; at 10 µM (top of the series)
GCLM = conditions: mouse embryonic fibroblasts, qRT-PCR mRNA fold induction, at 10 µM (top of the series)
HO-1 = conditions: mouse embryonic fibroblasts, qRT-PCR mRNA fold induction, at 10 µM (top of the series)
Hsp70 = conditions: mouse embryonic fibroblasts, qRT-PCR mRNA fold induction, at 10 µM (top of the series)

Measured: fold induction of mRNA

Chain of DNA damage-inducible transcript 3 protein (Mus musculus) (P35639 whole entry, looked up): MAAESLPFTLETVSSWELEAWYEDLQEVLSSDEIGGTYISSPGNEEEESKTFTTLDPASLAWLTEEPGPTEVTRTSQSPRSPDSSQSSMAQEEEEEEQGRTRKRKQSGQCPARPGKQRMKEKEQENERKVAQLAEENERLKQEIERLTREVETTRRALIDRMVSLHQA

COc1ccc(/C=C/C=C2C(=O)NC(=O)NC2=O)cc1
active: BiP 2.18 | [1] 2.08 | GCLM 1.6 | HO-1 5.54 | Hsp70 18.9
